This note sets out measurements from patent publication US10100010B1, “4-methoxy pyrrole derivatives or salts thereof and pharmaceutical composition comprising the same” (Daewoong Pharmaceutical Co., Ltd., priority 2015, dated 2018).

Structures are written as SMILES. Counter-ions that a name gives are not always drawn.

Experiment [1] concerns the target T1, proton pump (H+/K+-ATPase) (Sus scrofa, UniProt P19156).
T1 construct: Gastric vesicles were prepared from a hog stomach; from tissue; host or cells: hog stomach (gastric vesicles, method of Rabon et al. 1988)
The experiment in a line: Inhibitory effects on proton pump (H+/K+-ATPase) activity, gastric vesicles, malachite green Pi detection. The experiment is classed as biochemical. The following applies: hog gastric vesicles, 37° C. 40 minutes, pH 7.4. On the procedure: The inhibitory effects on proton pump (H^+/K^+-ATPase) activity of the compounds prepared in Examples 2, 8 and 22 were measured as follows.
Gastric vesicles were prepared from a hog stomach in accordance with the known method (Edd C. Rabon et al., Preparation of Gastric H^+, K^+-ATPase., Methods in enzymology, vol. 157 Academic Press Inc., (1988), pp. 649-654). The protein contents of gastric vesicles thus prepared were quantitatively measured with Bicinchoninic Acid (BCA) kit (Thermo Co.).
80 ul of (a predetermined concentration of a test compound, 0.5% DMSO, 2.5 mM MgCl2, 12.5 mM KCl, 1.25 mM EDTA, 60 mM Tris-HCl, pH7.4) was added to each well of 96-well plate. 10 ul of the reaction solution containing gastric vesicles (60 mmol/l, Tris-HCl buffer solution, pH 7.4), and 10 ul of Tris buffer solution containing adenosine triphosphate (10 mM ATP, Tris-HCl buffer solution, pH 7.4) were added to each well and subjected to enzymatic reaction at 37° C. for 40 minutes. […] The amount of monophosphate (Pi) in the reaction solution was measured at 570 nm by using a microplate reader (FLUOstar Omega, BMG Co.). The inhibition rate (%) was measured from the activity value of the control group and the activity value of the test compound at various concentrations, and the concentration (IC50) that inhibits H^+/K^+-ATPase activity by 50% was calculated from each % inhibition value of the compounds using Logistic 4-parameter function of Sigmaplot8.0 program.

The test system of experiment [2] is basal gastric acid secretion in pylorus-ligated rats. The experiment in a line: Inhibitory effects on basal gastric acid secretion in pylorus-ligated rats (Shay's rat model). The following applies: 2.0 mg/kg into the duodenum, 5 hours after ligation. The class given is in vivo, Sprague Dawley (SD) rats. On the procedure:
Inhibitory effects of the compounds prepared in Examples 2, 8 and 22 on basal gastric acid secretion were measured according to Shay's rat model (Shay, H., et al., 1945, gastroenterology, 5, p 43-61). Male Sprague Dawley (SD) rats (body weight 180-220 g) were divided into 4 groups (n=6-7) and fasted for 18 hours with free access to water. Under isoflurane anesthesia, the abdomens of the rats were incised and then the pylorus was ligated. Immediately after ligation, control group was administered with 2 mL/kg of 0.5% methyl cellulose (MC) aqueous solution into the duodenum, and the other groups were administered with test compounds suspended in 0.5% methyl cellulose (MC) aqueous solution at a dose of 2.0 mg/kg/2 ml. 5 hours after ligation, the test animals were sacrificed, and gastric contents were removed. The removed contents were centrifuged at 4,000×g for 10 minutes and the supernatant was separated to obtain the gastric juice. The amount and pH of the gastric juice were measured and the acidity in the gastric juice was measured by 0.1N NaOH volume (ueq/mL) required for the titration of gastric acid to pH 7.0. Total acid output was measured by multiplying the acidity of the gastric juice by the amount of the gastric juice. % inhibitory activity of test compounds were calculated according to the following equation, and the results are shown in Table 2. % inhibitory activity of test compound=[(total acid output of control group-total acid output of the group treated with test compounds)/total acid output of control group]×100 [Equation 1]

The target in experiment [3] is T2, M2 (Homo sapiens, UniProt P08172).
T2 sequence (P08172 1-466): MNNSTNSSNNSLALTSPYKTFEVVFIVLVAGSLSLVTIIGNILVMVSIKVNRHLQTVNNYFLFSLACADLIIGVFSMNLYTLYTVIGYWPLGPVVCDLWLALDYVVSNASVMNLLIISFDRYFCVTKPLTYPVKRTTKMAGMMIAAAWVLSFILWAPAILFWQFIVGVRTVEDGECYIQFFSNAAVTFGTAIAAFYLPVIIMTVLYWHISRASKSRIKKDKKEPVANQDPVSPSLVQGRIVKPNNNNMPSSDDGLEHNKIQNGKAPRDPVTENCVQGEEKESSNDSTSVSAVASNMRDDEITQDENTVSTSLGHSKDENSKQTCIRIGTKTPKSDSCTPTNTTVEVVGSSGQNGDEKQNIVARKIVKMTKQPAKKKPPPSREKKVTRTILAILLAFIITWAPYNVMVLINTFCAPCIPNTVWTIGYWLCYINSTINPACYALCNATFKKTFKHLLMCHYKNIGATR
The experiment can be described thus: GPCR Calcium Flux assay (FLIPR tetra, Eurofins), M2. Particulars: for IC50: 8 concentrations 10 to 0.0006 uM, read-out: 50% inhibitory concentration (IC50) M2; for inhibition at 10 µM: single concentration of 10 uM, read-out: inhibition rate (%) M2. The experiment is classed as cell-based. On the procedure:
In order to confirm whether the compounds prepared in the above Examples act as an agonist or antagonist against GPCR Target, Calcium Flux assay was performed in an assay plate in which the compounds prepared in the Examples, vehicle controls, and reference compounds were added, using a Fluorometric imaging plate reader (FLIPR tetra) equipment.
Calcium Flux assay was evaluated by entrusting the GPCR profiler assay in Safety panel assays with Eurofins. By using the Fluo-8AM calcium dye, excitation was measured at a wavelength in the range of 470 to 495 nm and Emission was measured at a wavelength in the range of 515-575 nm. GPCR Assay Buffer for Calcium Flux assay was prepared by adding 20 mM of HEPES and 2.5 mM of Probenecid to Hanks Balanced Salt Solution (HBSS) to have pH 7.4. The Compounds of Examples for evaluation of the GPCR were diluted with DMSO at a concentration of 10 mM to make a stock and then prepared by diluting in the GPCR Assay Buffer at the concentration equivalent to three times the final concentration. First, for the evaluation of GPCRs, the inhibitory activity of the compounds of the Examples was evaluated at a single concentration of 10 uM, and then the respective selected targets were four fold-diluted from 10 uM to the low side to calculate 50% inhibitory concentration (IC50), prepared at the total 8 concentrations of 10, 2.5, 0.62, 0.15, 0.04, 0.01, 0.0024, 0.0006 uM, and Calcium Flux assay for GPCR was conducted. In order to evaluate the agonist and antagonist, % inhibition rate against GPCR activity before and after treatment of the compounds and the inhibitory activity of the compounds of the Examples were determined.
As a result, when the efficacy of […] and acetylcholine of the compounds prepared in the Examples was 100%, the inhibition rate (%) at a single concentration of 10 uM was evaluated and shown in Table 8.

T1 sequence (P19156 2-1034 limits assumed): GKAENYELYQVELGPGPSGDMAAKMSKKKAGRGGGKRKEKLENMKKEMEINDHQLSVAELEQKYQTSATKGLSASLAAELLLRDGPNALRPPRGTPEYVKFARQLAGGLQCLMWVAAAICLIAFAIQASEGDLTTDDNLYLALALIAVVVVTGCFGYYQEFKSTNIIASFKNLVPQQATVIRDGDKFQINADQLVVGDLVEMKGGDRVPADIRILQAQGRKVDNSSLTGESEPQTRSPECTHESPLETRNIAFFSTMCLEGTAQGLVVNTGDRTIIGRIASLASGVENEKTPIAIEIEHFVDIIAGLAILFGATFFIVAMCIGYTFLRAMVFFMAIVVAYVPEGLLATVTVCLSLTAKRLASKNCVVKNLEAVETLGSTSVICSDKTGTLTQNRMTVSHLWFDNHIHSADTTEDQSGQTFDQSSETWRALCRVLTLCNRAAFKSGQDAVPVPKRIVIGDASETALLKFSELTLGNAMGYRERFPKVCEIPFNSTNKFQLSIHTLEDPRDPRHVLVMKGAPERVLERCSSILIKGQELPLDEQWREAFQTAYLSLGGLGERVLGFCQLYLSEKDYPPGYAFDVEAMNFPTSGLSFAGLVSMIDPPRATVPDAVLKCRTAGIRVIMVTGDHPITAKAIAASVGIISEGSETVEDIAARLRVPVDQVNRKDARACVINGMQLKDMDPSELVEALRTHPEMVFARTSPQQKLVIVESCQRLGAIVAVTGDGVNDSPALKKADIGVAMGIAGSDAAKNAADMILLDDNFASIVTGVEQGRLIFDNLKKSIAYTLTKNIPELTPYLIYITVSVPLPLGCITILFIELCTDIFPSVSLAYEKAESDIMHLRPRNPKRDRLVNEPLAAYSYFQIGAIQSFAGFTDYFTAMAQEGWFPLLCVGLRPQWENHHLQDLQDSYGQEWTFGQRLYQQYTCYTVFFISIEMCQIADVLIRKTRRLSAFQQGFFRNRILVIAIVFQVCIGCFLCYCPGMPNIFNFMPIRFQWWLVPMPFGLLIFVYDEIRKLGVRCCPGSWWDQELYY
T1 sequence (P18434 whole entry partner): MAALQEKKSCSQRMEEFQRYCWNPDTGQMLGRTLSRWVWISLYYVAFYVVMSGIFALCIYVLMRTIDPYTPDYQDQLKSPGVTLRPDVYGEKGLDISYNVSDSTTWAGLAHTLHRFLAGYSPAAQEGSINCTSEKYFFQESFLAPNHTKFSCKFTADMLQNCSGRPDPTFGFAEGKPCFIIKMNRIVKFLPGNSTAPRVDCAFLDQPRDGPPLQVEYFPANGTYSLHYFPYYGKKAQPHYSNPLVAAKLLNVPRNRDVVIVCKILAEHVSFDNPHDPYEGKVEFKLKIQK

Broadly, the inhibition is the drop in the measured response relative to a control, in per cent. The compound `CNCc1cn(S(=O)(=O)c2cccc(F)c2)c(-c2ccc(F)cc2F)c1OC.Cl` [Example 8, 1-(5-(2,4-difluorophenyl)-1-((3-fluorophenyl)sulfonyl)-4-methoxy-1H-pyrrol-3-yl)-N-methylmethanamine hydrochloride] registered an IC50 in experiment [1] of 24 nM. In addition, in experiment [2], the “% inhibitory activity (total acid output)” value (“% inhibitory activity” for short) was 90.5%. In experiment [3], the IC50 worked out at 650 nM and the inhibition at 10 µM amounted to 101%.

For the compound `CNCc1cn(S(=O)(=O)c2cccc(F)c2)c(-c2c(F)cc(F)cc2F)c1OC.Cl` [Example 22, 1-(1-((3-fluorophenyl)sulfonyl)-4-methoxy-5-(2,4,6-trifluorophenyl)-1H-pyrrol-3-yl)-N-methylmethanamine hydrochloride], the IC50 in experiment [1] is 14 nM. Also, in experiment [2], the “% inhibitory activity” value was found to be 88.1%. In experiment [3], the IC50 turned out to be 1000 nM and the inhibition at 10 µM was 100%.

`CNCc1cn(S(=O)(=O)c2cccc(C(F)(F)F)c2)c(-c2ccccc2F)c1OC` [Example 2, hydrochloride]: the IC50 in experiment [1] was found to be 15 nM. Also, in experiment [2], the “% inhibitory activity” value came to 93.5%. The inhibition at 10 µM in experiment [3] is -4.7%.
